According to paper PMC2137757 (The Journal of Experimental Medicine, 1964):
Read-outs that look alike come from different tables or passages of the source.

Experiments:
[1] = test system: adrenal cortex; settings: cited from earlier work
[2] = test system: menadione reductase (EC 1.6.5.2); assay: Induction of menadione reductase in tissues; format: in vivo, rat; settings: for Hepatic menadione reductase: measured at 48 hours
[3] = Solubility of hydrocarbons in sesame oil; settings: room temperature; approximately
[4] = test system: lactic dehydrogenase; assay: Lactic dehydrogenase level in liver; format: in vivo, rat; settings: 3-MC 2.5 mg intravenous; Fig. 1
[5] = test system: adrenal cortex; assay: Induced protection of adrenal against 7,12-DMBA; format: in vivo, rat
[6] = test system: adrenal cortex; assay: Adrenal damage
[7] = test system: deoxyribonucleic acid of adrenal; format: in vivo, rat; settings: Table VII
[8] = test system: adrenal cortex; settings: cited from earlier work; remark: listed apart in the source
[9] = test system: acid-insoluble residue (DNA) of liver; settings: 7,12-DMBA 5 mg i.v. at -4 hours; TdRH3 at 0 hours; liver at +20 hours; Fig. 3
[10] = Survival after a single feeding; settings: 30 mg, animals invariably succumbed
[11] = 3-MC 2.5 mg i.v. on day 0 and day 1, tissues day 2, eight rats
[12] = rats bearing mammary cancers, fed 3-MC 10 mg, day 1, vs rats without 3-MC
[13] = 7,12-DMBA oral 10 mg at -48 hrs
[14] = 7,12-DMBA oral 10 mg at -48 hrs, 7,12-DMBA 5 mg i.v. at -4 hrs

Cc1ccc2cc3c(ccc4ccccc43)c3c2c1CC3 [3-MC, 3-Methylcholanthrene]
Prevention of adrenal injury by 7,12-DMBA [1]: prevented adrenal injury
Hepatic menadione reductase ([2]; 3-MC 2.5 mg i.v. at 0 hours, lipide at 24 hours, Fig. 5): 276 per cent of controls
Increase of menadione reductase in adrenal with respect to untreated controls [2, 11]: 159 per cent
Increase of menadione reductase in lung with respect to untreated controls [2, 11]: 164 per cent
Time of significant rise in menadione reductase in liver ([2]; 3-MC 2.5 mg i.v. only, Fig. 4): 4 h
Time of first rise of menadione reductase in liver ([2]; 3-MC 2.5 mg intravenous, Fig. 1): 3 h
Time of first increase of menadione reductase ([2]; 3-MC large dose (5 mg) i.v., Discussion): 4 h
Increase of menadione reductase in liver [2, 12]: +224 per cent
Increase of menadione reductase in mammary cancer [2, 12]: +275 per cent
Increase of menadione reductase in mammary gland [2, 12]: +214 per cent
Hepatic menadione reductase ([2]; sequence 3-MC 2.5 mg + 3-MC 2.5 mg i.v. at 0 and 24 hours): 387 per cent of controls
Increase of menadione reductase concentration in liver ([2]; single feeding of 3-MC 0.5 mg, 24 hours, Fig. 2): twofold
Increase of menadione reductase level in lung ([2]; single feeding of 3-MC 1 mg, 24 hours, Fig. 2): 150 per cent
Solubility w/v in sesame oil [3]: ~1.25 per cent
Change in concentration of lactic dehydrogenase in liver [4]: no significantchange
Adrenal protection ([5]; 3-MC 0.5 mg on day -1 by feeding or injection in muscle or in vein): complete adrenal protection
Duration of adrenal protection ([5]; 3-MC 1 mg i.v., apoplexy when 7,12-DMBA injected on day 3): 2 days
Duration of adrenal protection ([5]; 3-MC 5 mg i.v., apoplexy when 7,12-DMBA injected on day 8): 6 days
Adrenal status ([5]; 3-MC 2, 5, or 10 mg i.v. in the same emulsion with 7,12-DMBA 5 mg (simultaneous)): adrenal apoplexy in all of the animals
Duration of adrenal protection ([5]; 3-MC small dose (2 mg) i.v., Discussion): 2 days
Adrenal status ([5]; Table IV, 3-MC 0.5 mg i.v. at -1 hr before 7,12-DMBA 5 mg i.v.): +
Adrenal status ([5]; Table IV, 3-MC 0.5 mg i.v. at -2 hrs before 7,12-DMBA 5 mg i.v.): +
Adrenal status ([5]; Table IV, 3-MC 0.5 mg i.v. at -3 hrs before 7,12-DMBA 5 mg i.v.): 0
Adrenal status ([5]; Table IV, 3-MC 0.5 mg i.v. at -4 hrs before 7,12-DMBA 5 mg i.v.): 0
Adrenal status ([5]; Table IV, 3-MC 1 mg i.v. at -1 hr before 7,12-DMBA 5 mg i.v.): +
Adrenal status ([5]; Table IV, 3-MC 1 mg i.v. at -2 hrs before 7,12-DMBA 5 mg i.v.): +
Adrenal status ([5]; Table IV, 3-MC 1 mg i.v. at -3 hrs before 7,12-DMBA 5 mg i.v.): 0
Adrenal status ([5]; Table IV, 3-MC 1 mg i.v. at -4 hrs before 7,12-DMBA 5 mg i.v.): 0
Adrenal status ([5]; Table IV, 3-MC 2 mg i.v. at -1 hr before 7,12-DMBA 5 mg i.v.): +
Adrenal status ([5]; Table IV, 3-MC 2 mg i.v. at -2 hrs before 7,12-DMBA 5 mg i.v.): +
Adrenal status ([5]; Table IV, 3-MC 2 mg i.v. at -3 hrs before 7,12-DMBA 5 mg i.v.): 0
Adrenal status ([5]; Table IV, 3-MC 2 mg i.v. at -4 hrs before 7,12-DMBA 5 mg i.v.): 0
Adrenal status ([5]; Table IV, 3-MC 2.5 mg i.v. at -1 hr before 7,12-DMBA 5 mg i.v.): +
Adrenal status ([5]; Table IV, 3-MC 2.5 mg i.v. at -2 hrs before 7,12-DMBA 5 mg i.v.): +
Adrenal status ([5]; Table IV, 3-MC 2.5 mg i.v. at -3 hrs before 7,12-DMBA 5 mg i.v.): +
Adrenal status ([5]; Table IV, 3-MC 2.5 mg i.v. at -4 hrs before 7,12-DMBA 5 mg i.v.): 0
Adrenal status ([5]; Table IV, 3-MC 5 mg i.v. at -1 hr before 7,12-DMBA 5 mg i.v.): +
Adrenal status ([5]; Table IV, 3-MC 5 mg i.v. at -2 hrs before 7,12-DMBA 5 mg i.v.): +
Adrenal status ([5]; Table IV, 3-MC 5 mg i.v. at -3 hrs before 7,12-DMBA 5 mg i.v.): +
Adrenal status ([5]; Table IV, 3-MC 5 mg i.v. at -4 hrs before 7,12-DMBA 5 mg i.v.): +
Adrenal status ([5]; Table IV, 3-MC 10 mg i.v. at -1 hr before 7,12-DMBA 5 mg i.v.): +
Adrenal status ([5]; Table IV, 3-MC 10 mg i.v. at -2 hrs before 7,12-DMBA 5 mg i.v.): +
Adrenal status ([5]; Table IV, 3-MC 10 mg i.v. at -3 hrs before 7,12-DMBA 5 mg i.v.): +
Adrenal status ([5]; Table IV, 3-MC 10 mg i.v. at -4 hrs before 7,12-DMBA 5 mg i.v.): +

Cc1c2ccccc2c(C)c2c1ccc1ccccc12 [7,12-DMBA, 7,12-Dimethylbenz[a]anthracene]
Protection of adrenal from damage by a large dose of 7,12-DMBA ([1]; single preliminary feeding): protects
Hepatic menadione reductase ([2]; 7,12-DMBA 5 mg i.v. at 0 hours, lipide at 24 hours, Fig. 5): 269 per cent of controls
Time of first rise in hepatic menadione reductase ([2]; 7,12-DMBA 5 mg intravenous, Fig. 3): 3 h
Time of first elevation in hepatic menadione reductase ([2]; 7,12-DMBA 5 mg oral, Fig. 3): 8 h
Solubility w/v in sesame oil [3]: ~10 per cent
Adrenal hemorrhage ([6]; 5 mg given by vein): invariably caused adrenal hemorrhage
Adrenal apoplexy ([6]; Table I, 7,12-DMBA 30 mg/kg i.v., age 30 days, adrenals 72 hours later, 8 rats): 0
Adrenal apoplexy ([6]; Table I, 7,12-DMBA 30 mg/kg i.v., age 35 days, 8 rats): 6/8
Adrenal apoplexy ([6]; Table I, 7,12-DMBA 30 mg/kg i.v., age 40 days, 8 rats): 8/8
Adrenal apoplexy ([6]; Table I, 7,12-DMBA 30 mg/kg i.v., age 42 days, 8 rats): 8/8
Adrenal apoplexy ([6]; Table I, 7,12-DMBA 30 mg/kg i.v., age 45 days, 8 rats): 8/8
Adrenal apoplexy ([6]; feeding of 5 mg): failed to induce apoplexy
Tritium content of adrenal, per cent of controls ([7]; 7,12-DMBA 5 mg i.v. at -4 hrs): 40 per cent
Tritium content of adrenal [7, 13]: 0.120 ~clgm
Tritium content of adrenal, per cent of controls [7, 13]: 91 per cent
Tritium content of adrenal [7, 14]: 0.064 ~clgm
Tritium content of adrenal, per cent of controls [7, 14]: 48 per cent
Intravenous amount that itself causes adrenal necrosis ([8]; intravenous): ≥ 2 mg
Adrenal apoplexy ([8]; single feeding 30 mg, adult rats): induces adrenal apoplexy in all adult rats
Incorporation of tritium into acid-insoluble residue of liver [9]: 56 per cent of control values
Rats protected ([5]; 1 mg by intravenous injection on day -1, group of 8): 5
Adrenal protection ([5]; 0.5 to 1.5 mg injected intravenously as protector on day -1): no amount was found which induced complete protection
Adrenal protection ([5]; single feeding 2 mg to 10 mg, 1 day prior to 7,12-DMBA 5 mg i.v.): protected adrenals completely

CN(C)c1ccc(C=Cc2ccccc2)cc1 [4-dimethylaminostilbene]
Time to death [10]: ≤ 5 days
Adrenal necrosis ([6]; feeding, 30 mg): did not induce necrosis
